Patent US20070213291A1, “Therapeutically useful synthetic oligonucleotides” (priority 1999, published 2007)
Where two headings read alike, the source gives them in different places.

How the values were obtained:
[1] = test system: Jurkat human leukemia T cells; test: Inhibition of Jurkat human leukemia T cell proliferation (MTT reduction); assay type: cell-based; details: for % INHIBITION of Jurkat human leukemia T cell proliferation: 100 μg/ml sequence, 48 h, 2.5×10^5 cells/ml
Outline: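 Jurkat cells at 2.5×10^5 cells/ml exposed to 100 μg/ml of 2–45-base A/C/G/T sequences (0 μg/ml control) for 48 h, 37° C, 5% CO2. Viability by MTT reduction read at 570 nm.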

[2] = test system: MCF-7 human breast cancer cells; test: Inhibition of MCF-7 cell proliferation (MTT); assay type: cell-based; details: for inhibition at 1 µg/mL: Homo sapiens, MCF7
Outline: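 Cells at 2.5×10^5 cells/ml (GT 3- and 6-base series at 5×10^5 cells/ml) treated with 100 μg/ml of 2-45-base oligonucleotide sequences versus untreated control for 48 h at 37 °C, 5% CO2. Proliferation read by MTT reduction at 570 nm.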

[3] = test system: MCF-7 human breast cancer cells; test: MCF-7 human breast tumor xenografts in female nude BALB/c mice; assay type: in vivo; details: after 4 weeks of treatment, compared with other groups (group 1 saline)
Description: MCF-7 human breast cancer cells are implanted subcutaneously as xenografts, in female nude BALB/c mice. The mice are divided into 6 groups of 10 mice. […] After 4 weeks of treatment, the mice are sacrificed and tumor mass is determined.

[4] = test system: Jurkat human leukemia T cells; test: Apoptosis by phosphatidylserine/annexin V-FITC flow cytometry; assay type: cell-based; details: 50 μM sequence
Outline: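 Jurkat cells were exposed to 3–7-base oligonucleotides (GT, ACGT, AG, GG, AGT, CGT sequences) at 50 μM. Separately, 6-base GT and complementary AC sequences, alone or hybridized 1:1 (10 min, 65 °C), were applied for 24 h. Phosphatidylserine exposure was quantified by flow cytometry with FITC-annexin V.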

[5] = test system: Jurkat human leukemia T cells; test: NuMA release into supernatant (ELISA); assay type: cell-based; details: Jurkat, 50 μM sequence
Outline: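 Jurkat T cells (1×10^6/ml) exposed to GT-containing oligonucleotide sequences, at 50 μM in some experiments, for 24 h in some experiments. NuMA released into the supernatant quantified by commercial ELISA.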

[6] = test system: THP-1 human acute monocytic leukemia cells; test: Cytokine production by THP-1 cells (ELISA); assay type: cell-based; details: THP-1, 1×10^6 cells, 100 μg/ml, 48 h; for ↑ IL-12 (fold increase treated vs control cells): p70 complex and free p40
Outline: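 1×10^6 cells exposed to 100 μg/ml of each oligonucleotide sequence for 48 h at 37° C in 5% CO2, unless stated otherwise. Cytokines quantified in culture supernatant by ELISA, IL-12 assay detecting both p70 and free p40; values are fold increase over untreated control cells.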

[7] = test system: human peripheral blood mononuclear cells; test: Cytokine production by human PBMC (ELISA); assay type: cell-based; details: PBMC of 7 healthy humans, 100 μg/ml, 48 h
Outline: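 PBMC from 7 healthy donors, Ficoll-isolated; 1×10^6 cells incubated with 100 μg/ml oligonucleotide sequence for 48 h at 37 °C, 5% CO2. IL-1beta, IL-6, IL-10, IL-12 (p70 plus free p40) and TNF-alpha measured by ELISA in supernatant, expressed as fold increase over control cells.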

chimpanzee PBMCs = test: Cytokine production by chimpanzee PBMC (ELISA); assay type: cell-based; details: PBMC of 4 healthy chimpanzees, 100 μg/ml, 48 h
Outline: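 PBMCs from 4 healthy chimpanzees (1×10^6 cells) were incubated 48 h at 37 °C, 5% CO2 with 100 μg/ml of each 6-base sequence. Supernatant IL-10, IL-12 (p70 plus free p40) and TNF-alpha were measured by ELISA. Values are fold increase over untreated control cells.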

rhesus monkey PBMCs = test: Cytokine production by rhesus monkey PBMC (ELISA); assay type: cell-based; details: PBMC of 4 healthy rhesus monkeys, 100 μg/ml, 48 h
Outline: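 Peripheral blood mononuclear cells taken from 4 healthy rhesus monkeys were cultured at 1×10^6 cells with 100 μg/ml of each test sequence for 48 h at 37° C. under 5% CO2. Cytokine levels in 100 μl of supernatant were quantified in pg/ml by commercial ELISA and reported as fold increase over untreated control cells.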

[8] = test system: LNCaP human prostate cancer cells; test: LNCaP human prostate cancer xenografts in male nude nu/nu mice; assay type: in vivo; details: after 4 weeks of treatment, compared with other groups (group 1 saline, group 5 BCG A-3)
Description: LNCaP human prostate cancer cells are implanted subcutaneously, as xenografts, in male nude nu/nu mice. The mice are divided into 5 groups of 10 mice. On day 0, group 1 mice receive saline, group 2 mice receive 3 base SEQ ID NO:8, group 3 mice receive 6 base GT SEQ ID NO:25, group 4 mice receive 6 base AG SEQ ID NO:45 and group 5 mice receive 45 base BCG A-3 SEQ ID NO:69. After 4 weeks of treatment, the mice are sacrificed and timor mass is determined.

[9] = test system: EL-4 murine T lymphoma cells; test: EL-4 murine T lymphoma in C57/BL6 mice; assay type: in vivo; details: after 4 weeks of treatment, compared with group 1 (saline)
Description: EL-4 murine T lymphoma cells are implanted into C57/BL6 mice. The mice are divided into 6 groups of 10 mice. On day 0, group 1 mice receive saline, group 2 mice receive 3 base GT SEQ ID NO:8, group 3 mice receive 6 base SEQ ID NO:25, group 4 mice receive 6 base AG SEQ ID NO:45, group 5 mice receive 18 base GT SEQ ID NO: 18 and group 6 mice receive 27 base GT SEQ ID NO:1. After 4 weeks of treatment, the mice are sacrificed and tumor mass is determined.

[10] = test system: PC-3 human prostate cancer cells; test: Inhibition of PC-3 cell proliferation (MTT); assay type: cell-based; details: 100 μg/ml, 48 h, 5×10^5 cells/ml
Description: Cells were seeded in 6 (1 ml/well), 24 (0.5 ml/well) or 96 (0.1 ml/well) well flat-bottom microplates and were maintained at 37° C. in a 5% CO2 atmosphere. Unless stated otherwise, 2.5×10^5 cells/ml were incubated with 0 μg/ml (control) and 100 μg/ml (treated) of 2 to 45 base sequences containing A, C, G and T for 48 h.
Cell proliferation was measured using dimethylthiazol-diphenyl-tetrazolium (MTT) reduction (Mosman et al. J. Immunol. Methods 65:55, 1983). MTT was measured at a wavelength of 570 nm using a multiplate spectrophotometer reader (ELX800, Bio-TEK Instruments Inc., Winooski, Vt.).
PC-3 prostate cancer cells are a p53 mutated, androgen-independent human solid tumor model. PC-3 cells (5×10^5 cells/ml) were incubated with 3 and 6 base GT sequences (Table 8).

[11] = test system: Jurkat human leukemia T cells; test: Cell cycle stage in Jurkat cells (propidium iodide flow cytometry); assay type: cell-based; details: Jurkat, 24 h, 100 μg/ml
Outline: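 Exponentially growing Jurkat cells were exposed for 24 h to 2–45-base A/C/G/T oligonucleotides, or at 1×10^6 cells/ml to 6-base GT and AC strands, alone (heated 10 min, 65 °C) or hybridized 1:1. Detergent-, trypsin-, RNase- and spermine-treated nuclei were propidium iodide-stained and scored for G0/G1, early/mid/late S and G2/M by doublet-discriminating flow cytometry.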

[12] = 5-fluorouracil 0.1 μg/ml, alone or with sequence at 1.0 μg/ml

O=c1[nH]cc(F)c(=O)[nH]1 [5-Fluorouracil, reference compound]
% INHIBITION of Jurkat proliferation, 5-Fluorouracil 0.1 μg/ml [1, 12]: 3%
% INHIBITION of Jurkat proliferation, 5-Fluorouracil 10.0 μg/ml ([1]; 5-fluorouracil 10.0 μg/ml, alone or with sequence at 1.0 μg/ml): 38%
inhibition at 1 µg/mL ([1]; Homo sapiens, Jurkat, 5-fluorouracil 1.0 μg/ml, alone or with sequence at 1.0 μg/ml): 14%
% INHIBITION of MCF-7 proliferation, 5-Fluorouracil 0.1 μg/ml [2, 12]: 13%
inhibition at 1 µg/mL ([2]; 5-fluorouracil 1.0 μg/ml, alone or with sequence at 1.0 μg/ml, read-out: % INHIBITION of MCF-7 proliferation, 5-Fluorouracil 1.0 μg/ml): 28%
tumor mass [3]: less tumor mass than group 1 mice

CC/C(=C(\c1ccccc1)c1ccc(OCCN(C)C)cc1)c1ccccc1 [Tamoxifen, reference compound]
inhibition at 1 µg/mL ([2]; tamoxifen 1.0 μg/ml, alone or with sequence at 1.0 μg/ml, read-out: % INHIBITION of MCF-7 proliferation, Tamoxifen 1.0 μg/ml): 18%
% INHIBITION of MCF-7 proliferation, Tamoxifen 0.1 μg/ml ([2]; tamoxifen 0.1 μg/ml, alone or with sequence at 1.0 μg/ml): 10%
% INHIBITION of MCF-7 proliferation, Tamoxifen 10.0 μg/ml ([2]; tamoxifen 10.0 μg/ml, alone or with sequence at 1.0 μg/ml): 15%
tumor mass [3]: less tumor mass than group 1 mice

GGGAGG (unmodified DNA) [SEQ ID NO:45]
% INHIBITION of Jurkat human leukemia T cell proliferation [1]: 28%
% of cells in apoptosis (positive for PS/A-V staining) [4]: 27%
% NuMA released (treated vs untreated cells) [5]: 74%
↑ IL-6 (fold increase treated vs control cells) [6]: 23.2x
↑ IL-12 (fold increase treated vs control cells) [6]: −1.6x
IL-1 beta fold increase: mean +/− SD [7]: 13.6 +/− 14.9 fold increase
IL-6 fold increase: mean +/− SD [7]: 24.7 +/− 16.5 fold increase
IL-10 fold increase: mean +/− SD [7]: 6.0 +/− 5.5 fold increase
IL-12 fold increase: mean +/− SD [7]: 20.7 +/− 10.3 fold increase
IL-10 fold increase: mean +/− SD (chimpanzee PBMCs): 9.9 +/− 9.2 fold increase
IL-12 fold increase: mean +/− SD (chimpanzee PBMCs): 15.9 +/− 10.7 fold increase
TNF-alpha fold increase: mean +/− SD (chimpanzee PBMCs): 14.5 +/− 6.9 fold increase
IL-10 fold increase: mean +/− SD (rhesus monkey PBMCs): 1.1 +/− 0.1 fold increase
IL-12 fold increase: mean +/− SD (rhesus monkey PBMCs): 11.9 +/− 4.5 fold increase
TNF-alpha fold increase: mean +/− SD (rhesus monkey PBMCs): 16.7 +/− 4.6 fold increase
tumor mass [8]: less tumor mass than groups 1 and 5 mice
tumor mass [9]: less tumor mass than group 1 mice

GTG (chemistry not given here) [SEQ ID NO:8]
% INHIBITION of Jurkat human leukemia T cell proliferation [1]: 46%
% INHIBITION of MCF-7 human breast cancer cell proliferation ([2]; 100 μg/ml, 48 h, 5×10^5 cells/ml): 18%
% INHIBITION of PC-3 human prostate cancer cell proliferation [10]: 13%
% of cells in apoptosis (positive for PS/A-V staining) [4]: 21%
% NuMA released (treated vs untreated cells) [5]: 97%
tumor mass [8]: less tumor mass than groups 1 and 5 mice
tumor mass [9]: less tumor mass than group 1 mice

TCCATCGCCAAGGAGATCGAGCTGGAGGATCCGTACGAGAAGATC (unmodified DNA) [BCG A-3, reference compound]
% INHIBITION of Jurkat human leukemia T cell proliferation [1]: 24%
% of cells in phase: G0/G1 [11]: 32.3%
% of cells in phase: G2/M [11]: 21.4%
% of cells in phase: SE [11]: 20.2%
% of cells in phase: SL [11]: 12.0%
% of cells in phase: SM [11]: 14.1%
Arrest (cell cycle) [11]: None
↑ IL-6 (fold increase treated vs control cells) [6]: 2.5x
↑ IL-12 (fold increase treated vs control cells) [6]: 1.7x
tumor mass [8]: less tumor mass than group 1 mice
